In patent US20060062753A1, “Polymeric quaternary ammonium salts useful as corrosion inhibitors and biocides” (priority 2004, published 2006):

What was measured:
[1] = system: Aerobic Acid Producing Bacteria (AAPB); assay: Biocide test API RP 38, aerobic acid producing bacteria; format: cell-based; conditions: 4 hours contact at 37° C., growth monitored 15 days
Protocol: (§1) The effectiveness of the polymeric quaternary ammonium salts as a biocide was tested using the method shown in the API Recommended Practice for Biological Analysis of Subsurface Injection Waters, API RP 38, March, 1982, which is hereby fully incorporated by reference. The effectiveness of the salts as a biocide was tested using planktonic sulfate reducing bacteria (SRB), Aerobic Acid Producing Bacteria (AAPB) and Anaerobic Acid Producing (AnAP) Bacteria.
(§2) The desired concentrations of the polymeric quaternary ammonium salt biocide were added to clean sterilized bottles. Two bottles contained no biocides and served as controls. Under a N2 blanket, 10 mL of actively growing bacterial culture (24 hours old) was added to each of the bottles, and a 1 mL sample was taken and serially diluted into six bottles. The solutions were mixed well and the bottles were placed in an incubator at 37° C. for 4 hours. At the end of this period, 1 mL samples from each of the treated bottles were taken and serially diluted into 3 bottles. Samples from the control bottles were serially diluted into six bottles. All bottles were then placed in an incubator at 37° C. and bacterial growth was monitored for 15 days.

[2] = system: planktonic sulfate reducing bacteria (SRB); assay: Biocide test API RP 38, sulfate reducing bacteria; format: cell-based; conditions: 4 hours contact at 37° C., growth monitored 15 days
Protocol: as §1, §2

[3] = system: Anaerobic Acid Producing (AnAP) Bacteria; assay: Biocide test API RP 38, anaerobic acid producing bacteria; format: cell-based; conditions: 4 hours contact at 37° C., growth monitored 15 days
Protocol: as §1, §2

[4] = Standard testing procedures for determining biodegradability
Source text: The present invention provides compositions comprising polymeric quaternary ammonium salts and methods of their use as a corrosion inhibitor and/or biocide. The polymeric quaternary ammonium salts described herein are highly biodegradable, thereby making these compositions highly desirable for use in corrosion systems that require careful consideration concerning environmental impact, such as on offshore drilling platforms. […] For purposes of comparison, sodium benzoate was about 85.5% biodegraded after 7 days, about 95% biodegraded after 14 days and 100% biodegraded after 28 days.

Structure (SMILES)	Bacterial cells/ml, Aerobic Acid Producing Bacteria (AAP) ([1]; dosage 100 ppm)	Bacterial cells/ml, Aerobic Acid Producing Bacteria (AAP) ([1]; dosage 200 ppm)	Bacterial cells/ml, Aerobic Acid Producing Bacteria (AAP) ([1]; dosage 375 ppm)	Bacterial cells/ml, Aerobic Acid Producing Bacteria (AAP) ([1]; dosage 500 ppm)	Bacterial cells/ml, sulfate reducing bacteria ([2]; dosage 31.3 ppm)	Bacterial cells/ml, sulfate reducing bacteria ([2]; dosage 62.5 ppm)	Bacterial cells/ml, Anaerobic Acid Producing (AnAP) Bacteria ([3]; dosage 31.3 ppm)	Bacterial cells/ml, Anaerobic Acid Producing (AnAP) Bacteria ([3]; dosage 62.5 ppm)	Bacterial cells/ml, Anaerobic Acid Producing (AnAP) Bacteria ([3]; dosage 125 ppm)	biodegraded ([4]; after 7 days)	biodegraded ([4]; after 14 days)	biodegraded ([4]; after 28 days) [%]
O=CCCCC=O [Glutaraldehyde]	≧10^3 cells/ml	≧10^3 cells/ml	10^2 cells/ml	10^1 cells/ml	10^1 cells/ml	0^ cells/ml	10^2 cells/ml	≧10^3 cells/ml	≧10^3 cells/ml			
O=C([O-])c1ccccc1.[Na+] [sodium benzoate]										about 85.5%	about 95%	100
